US8791132B2, “Compounds and methods for treatment of hypertension” (Medivation Technologies, Inc., priority 2011, dated 2014)
“And” between values parts separate entries of the source, which are not always exact repeats. Identical values can stand only once. Like-named read-outs stand apart in the source and are kept apart here.

Assays:
[1] = biological target: T1, human recombinant adrenergic α2A receptor (Homo sapiens, UniProt P08913); assay: Radioligand binding, adrenergic α2A ([3H]MK-912); details: for Percentage inhibition of ligand binding, Adrenergic α2A / Percentage inhibition of ligand binding, Adrenergic α2A (0.1 μM): 0.1 µM; for inhibition at 0.03 µM: read-out: Percentage inhibition of ligand binding, Adrenergic α2A (0.03 μM), compound at 0.03 μM
T1 construct: expressed in transfected cells; host or cells: insect Sf9 cells
T1 sequence (P08913 1-465): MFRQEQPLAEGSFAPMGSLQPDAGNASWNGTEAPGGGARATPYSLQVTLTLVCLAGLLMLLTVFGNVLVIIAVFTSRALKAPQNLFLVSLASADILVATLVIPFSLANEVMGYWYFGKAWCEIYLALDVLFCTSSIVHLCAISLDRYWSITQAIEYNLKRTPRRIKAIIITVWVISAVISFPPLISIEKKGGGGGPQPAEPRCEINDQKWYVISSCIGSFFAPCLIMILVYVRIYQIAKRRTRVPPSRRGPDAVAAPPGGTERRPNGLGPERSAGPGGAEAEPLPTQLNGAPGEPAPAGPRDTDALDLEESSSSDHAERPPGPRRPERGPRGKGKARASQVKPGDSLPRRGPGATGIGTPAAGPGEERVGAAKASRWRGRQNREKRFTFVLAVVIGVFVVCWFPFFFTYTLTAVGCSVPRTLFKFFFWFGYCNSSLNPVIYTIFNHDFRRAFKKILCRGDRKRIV
Summary of the method: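 Sf9 membranes, 1 nM [3H]MK-912, 60 min, 25 °C, Tris-HCl pH 7.4/MgCl2/EDTA buffer. NSB: 10 μM WB-4101. Filtration, counting; % inhibition of specific binding.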

[2] = biological target: T2, rat adrenergic α1B receptor (Rattus norvegicus, UniProt P15823); assay: Radioligand binding, adrenergic α1B ([3H]Prazosin); details: [3H]Prazosin; for Percentage inhibition of ligand binding, Adrenergic α1B / Percentage inhibition of ligand binding, Adrenergic α1B (0.1 μM): 0.1 µM; for inhibition at 0.03 µM: read-out: Percentage inhibition of ligand binding, Adrenergic α1B (0.03 μM), compound at 0.03 μM; for Percentage inhibition of ligand binding, Adrenergic α1B (0.03 μM): compound at 0.03 μM
T2 construct: rat adrenergic α1B receptor obtained from Wistar Rat liver; from tissue; host or cells: Wistar rat liver
T2 sequence (P15823 1-515): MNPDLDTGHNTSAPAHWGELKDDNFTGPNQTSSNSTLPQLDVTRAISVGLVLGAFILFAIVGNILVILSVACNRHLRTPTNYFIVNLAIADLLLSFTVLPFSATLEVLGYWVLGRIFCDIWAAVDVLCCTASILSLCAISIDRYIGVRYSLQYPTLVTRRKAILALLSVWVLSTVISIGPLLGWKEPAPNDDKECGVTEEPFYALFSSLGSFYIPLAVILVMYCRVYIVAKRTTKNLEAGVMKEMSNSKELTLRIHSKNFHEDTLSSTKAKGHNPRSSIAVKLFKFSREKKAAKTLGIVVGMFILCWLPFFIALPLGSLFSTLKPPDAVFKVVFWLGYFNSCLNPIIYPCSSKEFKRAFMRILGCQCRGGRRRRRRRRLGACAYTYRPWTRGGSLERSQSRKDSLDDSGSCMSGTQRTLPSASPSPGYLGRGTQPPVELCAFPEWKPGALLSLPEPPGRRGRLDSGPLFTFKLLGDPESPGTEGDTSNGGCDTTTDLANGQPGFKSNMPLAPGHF
Summary of the method: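 Specific binding, taken as total minus that remaining with 10 μM phentolamine, is measured after filtration and counting. Rat liver receptor preparation and 0.25 nM [3H]prazosin are incubated with compound in 50 mM Tris-HCl (pH 7.4, 0.5 mM EDTA) at 25° C for 60 min. Activity is reported as percent inhibition.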

[3] = biological target: T3, human recombinant adrenergic α2B receptor (Homo sapiens, UniProt P18089); assay: Radioligand binding, adrenergic α2B ([3H]Rauwolscine); details: for Percentage inhibition of ligand binding, Adrenergic α2B / inhibition at 0.03 µM / Percentage inhibition of ligand binding, Adrenergic α2B (0.03 μM) / inhibition at 0.1 µM: [3H]Rauwolscine; for Ki: read-out: Ki α2B; for inhibition at 0.1 µM: read-out: Percentage inhibition of ligand binding, Adrenergic α2B (0.1 μM), compound at 0.1 μM
T3 construct: expressed in transfected cells; host or cells: CHO-K1
T3 sequence (P18089 1-450): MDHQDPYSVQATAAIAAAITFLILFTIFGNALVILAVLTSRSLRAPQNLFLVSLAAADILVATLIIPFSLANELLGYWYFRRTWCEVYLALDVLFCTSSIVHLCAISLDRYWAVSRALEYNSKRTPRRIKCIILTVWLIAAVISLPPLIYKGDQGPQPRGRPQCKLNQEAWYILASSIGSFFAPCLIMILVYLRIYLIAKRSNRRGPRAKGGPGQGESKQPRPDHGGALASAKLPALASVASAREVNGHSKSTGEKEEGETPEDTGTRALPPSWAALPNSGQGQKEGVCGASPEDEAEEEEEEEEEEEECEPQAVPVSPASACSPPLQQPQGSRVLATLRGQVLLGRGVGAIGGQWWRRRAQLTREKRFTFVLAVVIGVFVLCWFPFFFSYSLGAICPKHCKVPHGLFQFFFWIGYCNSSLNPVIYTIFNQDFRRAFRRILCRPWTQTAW
Summary of the method: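 Membranes from CHO-K1 cells expressing human recombinant α2B, in 50 mM Tris-HCl pH 7.4, 12.5 mM MgCl2, 1 mM EDTA, 0.2% BSA, incubated with compound and 2.5 nM [3H]Rauwolscine, 60 min, 25 °C.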

[4] = compound at 0.1 μM, [3H]MK-912, repeat assays, each datapoint shown
[5] = compound at 0.1 μM, repeat assays, each datapoint shown
[6] = compound at 0.03 μM, repeat assays, each datapoint shown, 0.03 µM
[7] = compound at 0.03 μM, repeat assays, each datapoint shown, read-out: Percentage inhibition of ligand binding, Adrenergic α2B
[8] = compound at 0.1 μM, [3H]MK-912, repeat datapoints each shown
[9] = [3H]MK-912, repeat datapoints each shown
[10] = compound at 0.1 μM, repeat datapoints each shown
[11] = compound at 0.03 μM, repeat datapoints each shown, 0.03 µM
[12] = read-out: Percentage inhibition of ligand binding, Adrenergic α1B (0.1 μM), compound at 0.1 μM, repeat datapoints each shown
[13] = read-out: Percentage inhibition of ligand binding, Adrenergic α2B (0.03 μM), compound at 0.03 μM, repeat datapoints each shown

Cc1cnc2c(c1)c1c(n2CC(O)c2ccncc2)CCNC1 (single isomer, unassigned) [58a, 2-(3-methyl-5,6,7,8-tetrahydro-1,6,9-triaza-fluoren-9-yl)-1-pyridin-4-yl-ethanol]
Percentage inhibition of ligand binding, Adrenergic α2A [1, 4]: 9%
Percentage inhibition of ligand binding, Adrenergic α1B [2, 5]: 7%
Percentage inhibition of ligand binding, Adrenergic α2B [3, 6]: 5%

Cc1cnc2c(c1)c1c(n2CC(O)c2ccncc2)CCNC1 (single isomer, unassigned) [58b, 2-(3-methyl-5,6,7,8-tetrahydro-1,6,9-triaza-fluoren-9-yl)-1-pyridin-4-yl-ethanol]
Percentage inhibition of ligand binding, Adrenergic α2A [1, 4]: 0%
Percentage inhibition of ligand binding, Adrenergic α1B [2, 5]: 24%
Percentage inhibition of ligand binding, Adrenergic α2B [3, 6]: 39%

CN1CCc2c(c3cc(C(F)(F)F)ccc3n2CC(O)c2cccnc2)C1 (single isomer, unassigned) [59a]
inhibition at 0.1 µM ([1]; compound at 0.1 μM, [3H]MK-912, repeat assays, each datapoint shown, read-out: Percentage inhibition of ligand binding, Adrenergic α2A): 18%
inhibition at 0.1 µM ([2]; compound at 0.1 μM, repeat assays, each datapoint shown, read-out: Percentage inhibition of ligand binding, Adrenergic α1B): 11%
Percentage inhibition of ligand binding, Adrenergic α2B [3, 6]: 15%

CN1CCc2c(c3cc(C(F)(F)F)ccc3n2CC(O)c2cccnc2)C1 (single isomer, unassigned) [59b]
Percentage inhibition of ligand binding, Adrenergic α2A [1, 4]: 12%
Percentage inhibition of ligand binding, Adrenergic α1B [2, 5]: 7%
Percentage inhibition of ligand binding, Adrenergic α2B [3, 6]: 31%

Cc1cnc2c(c1)c1c(n2CCc2ccc(C)nc2)CCN2CCCC12 (single isomer, unassigned) [74b, 10-methyl-7-(2-(6-methylpyridin-3-yl)ethyl)-2,3,5,6,7,11c-hexahydro-1H-pyrido[3′,2′:4,5]pyrrolo[2,3-g]indolizine]
Percentage inhibition of ligand binding, Adrenergic α2A [1, 4]: 14%
Percentage inhibition of ligand binding, Adrenergic α1B [2, 5]: 28%
inhibition at 0.03 µM [3, 7]: 27%

Cc1ccc2c(c1)c1c(n2CC(O)c2ccncc2)CC2CCCN2C1 (single isomer, unassigned) [76a]
Percentage inhibition of ligand binding, Adrenergic α2A [1, 4]: 21%
Percentage inhibition of ligand binding, Adrenergic α1B [2, 5]: 78%
Percentage inhibition of ligand binding, Adrenergic α2B [3, 6]: 92%

Cc1ccc2c(c1)c1c(n2CC(O)c2ccncc2)CC2CCCN2C1 (single isomer, unassigned) [76b]
Percentage inhibition of ligand binding, Adrenergic α2A [1, 4]: 18%
Percentage inhibition of ligand binding, Adrenergic α1B [2, 5]: 71%
Percentage inhibition of ligand binding, Adrenergic α2B [3, 6]: 34%

Cc1ccc2c(c1)c1c(n2CC(O)c2ccncc2)CC2CCCN2C1 (single isomer, unassigned) [76c]
Percentage inhibition of ligand binding, Adrenergic α2A [1, 4]: 5%
Percentage inhibition of ligand binding, Adrenergic α1B [2, 5]: 33%
Percentage inhibition of ligand binding, Adrenergic α2B [3, 6]: 35%

Cc1ccc2c(c1)c1c(n2CC(O)c2ccncc2)CC2CCCN2C1 (single isomer, unassigned) [76d]
Percentage inhibition of ligand binding, Adrenergic α2A [1, 4]: 40%
Percentage inhibition of ligand binding, Adrenergic α1B [2, 5]: 51%
Percentage inhibition of ligand binding, Adrenergic α2B [3, 6]: 91%

Cc1ccc2c(c1)c1c(n2CC(C)(O)c2ccc(F)cc2)CCN(C)C1 (single isomer, unassigned) [90a]
Percentage inhibition of ligand binding, Adrenergic α2A [1, 4]: 71%
Percentage inhibition of ligand binding, Adrenergic α1B [2, 5]: 74%
inhibition at 0.03 µM [3, 7]: 97%

Cc1ccc2c(c1)c1c(n2CC(C)(O)c2ccc(F)cc2)CCN(C)C1 (single isomer, unassigned) [90b]
Percentage inhibition of ligand binding, Adrenergic α2A [1, 4]: 82%
Percentage inhibition of ligand binding, Adrenergic α1B [2, 5]: 81%
Percentage inhibition of ligand binding, Adrenergic α2B ([3]; compound at 0.03 μM, repeat assays, each datapoint shown): 97%

Cc1ccc(C(C)(O)Cn2c3c(c4cc(Cl)ccc42)CN(C)CC3)cn1 (single isomer, unassigned) [93a]
Ki [1]: 90.5 nM
Percentage inhibition of ligand binding, Adrenergic α2A (0.1 μM) [1, 8]: 25% and 36%
inhibition at 0.03 µM [1, 9]: 14%
Percentage inhibition of ligand binding, Adrenergic α1B (0.1 μM) [2, 10]: 37%
inhibition at 0.03 µM ([2]; repeat datapoints each shown): 13%
Percentage inhibition of ligand binding, Adrenergic α2B (0.03 μM) [3, 11]: 63% and 102%
Ki [3]: 1.14 nM

Cc1ccc(C(C)(O)Cn2c3c(c4cc(Cl)ccc42)CN(C)CC3)cn1 (single isomer, unassigned) [93b]
Percentage inhibition of ligand binding, Adrenergic α2A (0.1 μM) [1, 8]: −5%
Percentage inhibition of ligand binding, Adrenergic α1B (0.1 μM) [2, 10]: 1%
Percentage inhibition of ligand binding, Adrenergic α2B (0.03 μM) [3, 11]: 26%

Cc1ccc2c(c1)c1c(n2CC(C)(O)c2cccnc2)CNCC1 (single isomer, unassigned) [128a]
Ki [1]: 98.6 nM
Percentage inhibition of ligand binding, Adrenergic α2A (0.1 μM) [1, 8]: 34%
inhibition at 0.03 µM [1, 9]: 9%
inhibition at 0.1 µM ([1]; read-out: Percentage inhibition of ligand binding, Adrenergic α2A (0.1 μM), compound at 0.1 μM, [3H]MK-912, repeat datapoints each shown): 31%
Percentage inhibition of ligand binding, Adrenergic α1B (0.1 μM) [2, 10]: 45%
inhibition at 0.03 µM ([2]; repeat datapoints each shown): 14%
inhibition at 0.1 µM [2, 12]: 37%
Percentage inhibition of ligand binding, Adrenergic α2B (0.03 μM) [3, 11]: 100%
Ki [3]: 0.97 nM
inhibition at 0.03 µM [3, 13]: 97%
inhibition at 0.1 µM ([3]; repeat datapoints each shown): 104%

Cc1ccc2c(c1)c1c(n2CC(O)c2ccncc2)CCN2CCCC12 (single isomer, unassigned) [129c]
Ki [1]: 88.6 nM
Percentage inhibition of ligand binding, Adrenergic α1B (0.1 μM) [2, 10]: 96%
inhibition at 0.03 µM ([2]; repeat datapoints each shown): 86%
inhibition at 0.1 µM [2, 12]: 94%
Ki [3]: 0.77 nM
inhibition at 0.03 µM [3, 13]: 100%

Cc1ccc2c(c1)c1c(n2CC(OC(=O)C(C)(C)C)c2ccncc2)CCN(C)C1 (single isomer, unassigned) [130a]
Ki [1]: 6.91 nM
Percentage inhibition of ligand binding, Adrenergic α1B (0.03 μM) ([2]; repeat datapoints each shown): 32%
Percentage inhibition of ligand binding, Adrenergic α1B (0.1 μM) [2, 10]: 66% and 68%
Percentage inhibition of ligand binding, Adrenergic α2B (0.03 μM) [3, 11]: 104%
Ki [3]: 1.66 nM
inhibition at 0.03 µM [3, 13]: 100%
inhibition at 0.1 µM ([3]; repeat datapoints each shown): 107%

Cc1ccc2c(c1)c1c(n2CC(OC(=O)C(C)(C)C)c2ccncc2)CCN(C)C1 (single isomer, unassigned) [130b]
Ki [1]: 72.6 nM
Percentage inhibition of ligand binding, Adrenergic α2A (0.03 μM) ([1]; compound at 0.03 μM, [3H]MK-912, repeat datapoints each shown, 0.03 µM): 13%
Percentage inhibition of ligand binding, Adrenergic α2A (0.1 μM) [1, 8]: 31%
Percentage inhibition of ligand binding, Adrenergic α1B (0.03 μM) ([2]; repeat datapoints each shown): 2%
Percentage inhibition of ligand binding, Adrenergic α1B (0.1 μM) [2, 10]: 8% and 11%
Ki [3]: 2.52 nM
